Measurements published in the NIST ThermoML archive (doi:10.1016/j.jct.2006.04.007).
“And” between values parts separate entries of the source, which are not always exact repeats. Identical values can stand only once. Numbers after ± are expanded uncertainties.

Test: mn = molality of the nth substance listed, in mol/kg
Settings: 350 kPa, Liquid; for apparent molar heat capacity: Extra sensitive DSC

CC(=O)N[C@@H](C=O)[C@@H](O)[C@H](O)[C@H](O)CO [N-acetyl-D-glucosamine] + O
Settings | apparent molar heat capacity | mass density
318.15 K, m1 = 0.1999 | – | 1004.1 ± 1 kg/m3
318.15 K, m1 = 0.3018 | – | 1010.81 ± 1.1 kg/m3
318.15 K, m1 = 0.5001 | – | 1023.43 ± 1.3 kg/m3
318.15 K, m1 = 0.7003 | – | 1035.3 ± 1.4 kg/m3
318.15 K, m1 = 0.958 | – | 1051.87 ± 1.6 kg/m3
323.15 K, m1 = 0.0096 | 516 ± 100 J/K/mol | –
323.15 K, m1 = 0.0207 | 501 ± 46 J/K/mol | –
323.15 K, m1 = 0.03 | 483 ± 32 J/K/mol and 488 ± 32 J/K/mol | –
323.15 K, m1 = 0.07 | 493.4 ± 14 J/K/mol | –
323.15 K, m1 = 0.1502 | 483.4 ± 7.6 J/K/mol | –
323.15 K, m1 = 0.1999 | 495.3 ± 6.2 J/K/mol | –
323.15 K, m1 = 0.3018 | 498.2 ± 4.8 J/K/mol | –
323.15 K, m1 = 0.5001 | 502.3 ± 3.9 J/K/mol | –
323.15 K, m1 = 0.7003 | 503 ± 3.5 J/K/mol | –
323.15 K, m1 = 0.958 | 484.1 ± 3.3 J/K/mol | –
328.15 K, m1 = 0.0096 | 524 ± 99 J/K/mol | –
328.15 K, m1 = 0.01 | – | 986.41 ± 1.1 kg/m3
328.15 K, m1 = 0.02 | – | 987.4 ± 1.1 kg/m3
328.15 K, m1 = 0.0207 | 509 ± 46 J/K/mol | –
328.15 K, m1 = 0.03 | 490 ± 32 J/K/mol and 497 ± 32 J/K/mol | 987.95 ± 1.1 kg/m3 and 987.87 ± 1.1 kg/m3
328.15 K, m1 = 0.07 | 501.3 ± 14 J/K/mol | 990.79 ± 1.1 kg/m3
328.15 K, m1 = 0.1502 | 492.7 ± 7.5 J/K/mol | 997.12 ± 1 kg/m3
328.15 K, m1 = 0.1999 | 503.9 ± 6.1 J/K/mol | 999.48 ± 0.97 kg/m3
328.15 K, m1 = 0.3018 | 506.8 ± 4.8 J/K/mol | 1006.12 ± 1.1 kg/m3
328.15 K, m1 = 0.5001 | 510.8 ± 3.8 J/K/mol | 1018.64 ± 1.2 kg/m3
328.15 K, m1 = 0.7003 | 511.5 ± 3.4 J/K/mol | 1030.41 ± 1.4 kg/m3
328.15 K, m1 = 0.958 | 492.8 ± 3.2 J/K/mol | 1046.86 ± 1.6 kg/m3
333.15 K, m1 = 0.0096 | 532 ± 98 J/K/mol | –
333.15 K, m1 = 0.0207 | 517 ± 46 J/K/mol | –
333.15 K, m1 = 0.03 | 498 ± 32 J/K/mol and 506 ± 32 J/K/mol | –
333.15 K, m1 = 0.07 | 509.2 ± 14 J/K/mol | –
333.15 K, m1 = 0.1502 | 501.5 ± 7.4 J/K/mol | –
333.15 K, m1 = 0.1999 | 512.1 ± 6.1 J/K/mol | –
333.15 K, m1 = 0.3018 | 514.9 ± 4.7 J/K/mol | –
333.15 K, m1 = 0.5001 | 518.8 ± 3.8 J/K/mol | –
333.15 K, m1 = 0.7003 | 519.6 ± 3.4 J/K/mol | –
333.15 K, m1 = 0.958 | 501.1 ± 3.2 J/K/mol | –
338.15 K, m1 = 0.0096 | 540 ± 97 J/K/mol | –
338.15 K, m1 = 0.0207 | 524 ± 46 J/K/mol | –
338.15 K, m1 = 0.03 | 505 ± 32 J/K/mol and 514 ± 32 J/K/mol | –
338.15 K, m1 = 0.07 | 517 ± 14 J/K/mol | –
338.15 K, m1 = 0.1502 | 510.1 ± 7.4 J/K/mol | –
338.15 K, m1 = 0.1999 | 520 ± 6 J/K/mol | –
338.15 K, m1 = 0.3018 | 522.8 ± 4.6 J/K/mol | –
338.15 K, m1 = 0.5001 | 526.6 ± 3.7 J/K/mol | –
338.15 K, m1 = 0.7003 | 527.5 ± 3.3 J/K/mol | –
338.15 K, m1 = 0.958 | 509.1 ± 3.2 J/K/mol | –
343.15 K, m1 = 0.0096 | 547 ± 97 J/K/mol | –
343.15 K, m1 = 0.0207 | 532 ± 45 J/K/mol | –
343.15 K, m1 = 0.03 | 511 ± 32 J/K/mol and 523 ± 31 J/K/mol | –
343.15 K, m1 = 0.07 | 524.3 ± 14 J/K/mol | –
343.15 K, m1 = 0.1502 | 518.1 ± 7.4 J/K/mol | –
343.15 K, m1 = 0.1999 | 527.4 ± 6 J/K/mol | –
343.15 K, m1 = 0.3018 | 530.1 ± 4.7 J/K/mol | –
343.15 K, m1 = 0.5001 | 533.9 ± 3.7 J/K/mol | –
343.15 K, m1 = 0.7003 | 535 ± 3.3 J/K/mol | –
343.15 K, m1 = 0.958 | 516.5 ± 3.1 J/K/mol | –
348.15 K, m1 = 0.0096 | 554 ± 96 J/K/mol | –
348.15 K, m1 = 0.01 | – | 975.69 ± 1.3 kg/m3
348.15 K, m1 = 0.02 | – | 976.44 ± 1.3 kg/m3
348.15 K, m1 = 0.0207 | 538 ± 44 J/K/mol | –
348.15 K, m1 = 0.03 | 518 ± 31 J/K/mol and 531 ± 31 J/K/mol | 977.15 ± 1.2 kg/m3 and 977.05 ± 1.2 kg/m3
348.15 K, m1 = 0.07 | 531.6 ± 14 J/K/mol | 979.84 ± 1.2 kg/m3
348.15 K, m1 = 0.1502 | 525.9 ± 7.3 J/K/mol | 986.13 ± 1.1 kg/m3
348.15 K, m1 = 0.1999 | 534.7 ± 5.9 J/K/mol | 988.48 ± 1.1 kg/m3
348.15 K, m1 = 0.3018 | 537.2 ± 4.6 J/K/mol | 995.03 ± 1 kg/m3
348.15 K, m1 = 0.5001 | 540.8 ± 3.7 J/K/mol | 1007.4 ± 1.1 kg/m3
348.15 K, m1 = 0.7003 | 542.3 ± 3.2 J/K/mol | 1019.03 ± 1.2 kg/m3
348.15 K, m1 = 0.958 | 523.5 ± 3.1 J/K/mol | 1035.29 ± 1.4 kg/m3
353.15 K, m1 = 0.0096 | 561 ± 95 J/K/mol | –
353.15 K, m1 = 0.0207 | 545 ± 44 J/K/mol | –
353.15 K, m1 = 0.03 | 524 ± 31 J/K/mol and 539 ± 31 J/K/mol | –
353.15 K, m1 = 0.07 | 538.7 ± 14 J/K/mol | –
353.15 K, m1 = 0.1502 | 533.4 ± 7.3 J/K/mol | –
353.15 K, m1 = 0.1999 | 541.6 ± 5.9 J/K/mol | –
353.15 K, m1 = 0.3018 | 544.1 ± 4.5 J/K/mol | –
353.15 K, m1 = 0.5001 | 547.6 ± 3.7 J/K/mol | –
353.15 K, m1 = 0.7003 | 549.6 ± 3.2 J/K/mol | –
353.15 K, m1 = 0.958 | 530.3 ± 3 J/K/mol | –
358.15 K, m1 = 0.0096 | 568 ± 94 J/K/mol | –
358.15 K, m1 = 0.01 | – | 969.57 ± 1.4 kg/m3
358.15 K, m1 = 0.02 | – | 969.97 ± 1.4 kg/m3
358.15 K, m1 = 0.0207 | 552 ± 44 J/K/mol | –
358.15 K, m1 = 0.03 | 529 ± 31 J/K/mol and 547 ± 31 J/K/mol | 970.91 ± 1.3 kg/m3 and 970.89 ± 1.3 kg/m3
358.15 K, m1 = 0.07 | 545.8 ± 14 J/K/mol | 973.66 ± 1.3 kg/m3
358.15 K, m1 = 0.1502 | 540.9 ± 7.2 J/K/mol | 979.94 ± 1.2 kg/m3
358.15 K, m1 = 0.1999 | 548.3 ± 5.8 J/K/mol | 982.31 ± 1.2 kg/m3
358.15 K, m1 = 0.3018 | 550.7 ± 4.6 J/K/mol | 988.83 ± 1.1 kg/m3
358.15 K, m1 = 0.5001 | 554.1 ± 3.6 J/K/mol | 1000.87 ± 0.99 kg/m3
358.15 K, m1 = 0.7003 | 556.9 ± 3.2 J/K/mol | 1012.6 ± 1.1 kg/m3
358.15 K, m1 = 0.958 | 536.9 ± 3.1 J/K/mol | 1028.69 ± 1.3 kg/m3
363.15 K, m1 = 0.0096 | 574 ± 94 J/K/mol | –
363.15 K, m1 = 0.0207 | 558 ± 44 J/K/mol | –
363.15 K, m1 = 0.03 | 533 ± 31 J/K/mol and 553 ± 31 J/K/mol | –
363.15 K, m1 = 0.07 | 551.5 ± 14 J/K/mol | –
363.15 K, m1 = 0.1502 | 547.3 ± 7.1 J/K/mol | –
363.15 K, m1 = 0.1999 | 554.3 ± 5.8 J/K/mol | –
363.15 K, m1 = 0.3018 | 556.6 ± 4.5 J/K/mol | –
363.15 K, m1 = 0.5001 | 559.9 ± 3.6 J/K/mol | –
363.15 K, m1 = 0.7003 | 564.4 ± 3.2 J/K/mol | –
363.15 K, m1 = 0.958 | 542.9 ± 3 J/K/mol | –
368.15 K, m1 = 0.01 | – | 963.46 ± 1.4 kg/m3
368.15 K, m1 = 0.02 | – | 963.16 ± 1.4 kg/m3
368.15 K, m1 = 0.03 | – | 964.01 ± 1.4 kg/m3 and 964.02 ± 1.4 kg/m3
368.15 K, m1 = 0.07 | – | 966.84 ± 1.4 kg/m3
368.15 K, m1 = 0.1502 | – | 973.05 ± 1.3 kg/m3
368.15 K, m1 = 0.1999 | – | 975.42 ± 1.3 kg/m3
368.15 K, m1 = 0.3018 | – | 981.89 ± 1.2 kg/m3
368.15 K, m1 = 0.5001 | – | 994.17 ± 1.1 kg/m3
368.15 K, m1 = 0.7003 | – | 1005.68 ± 1.1 kg/m3
368.15 K, m1 = 0.958 | – | 1021.82 ± 1.3 kg/m3
